Here are results for 14 compounds from paper PMC8918016 (ACS infectious diseases, 2021).

The conditions of series [1]: for Rabbit 1 concentration in lung tissue / Rabbit 2 concentration in lung tissue: in vivo; for amount formed on a per-site basis in lung tissue: lung concentration divided by number of equivalent adamantyl sites.
In a further series the test system is B. subtilis. As to the kind of experiment: B. subtilis growth inhibition assay. Type of series: cell-based, Bacillus subtilis. The settings on record: read-out: Bs IC50.
A further series relates to M. tuberculosis H37Rv. Briefly: M. tuberculosis growth inhibition assay. The settings on record: read-out: Mtb IC90; concentration that inhibits 90% of growth, OD600, 5 days; ± standard error.
The next series deals with E. coli (K12). Briefly: E. coli growth inhibition assay. Type of series: cell-based, Escherichia coli. The settings on record: read-out: Ec IC50.
Another series concerns M. smegmatis. As to the kind of experiment: M. smegmatis growth inhibition assay. Type of series: cell-based, Mycobacterium smegmatis. The settings on record: read-out: Ms IC50, OD600, 48 h, ± standard error.
The conditions of series [2]: calculated, Pipeline Pilot program; cited from earlier work.
The conditions of series [3]: rats; cited from earlier work.
In another series the test system is human CYP2D6. Particulars: 30 min incubation with CYP2D6; cited from earlier work.
For the next series, the system named is human CYP2C19. Particulars: 30 min incubation with CYP2C19; cited from earlier work.
For series [4] the following is noted: dogs; cited from earlier work.
[5] abbreviates: growth inhibition, OD600, 12 h, ± standard error.

Like-named read-outs stand apart in the source and are kept apart here.

By IC50 is commonly meant the point on the concentration scale where inhibition reaches its midpoint. A word on the IC90: it is the concentration at which the effect reaches the 90% level.

As to `CC(C)=CCC/C(C)=C/CNCCNC1[C@H]2C[C@@H]3C[C@H](C2)C(O)[C@H]1C3` (stereo partly drawn) [Compound 24, (1R,3S,5S,7R)-4-((2-(((E)-3,7-Dimethylocta-2,6-dien-1-yl)-amino)ethyl)amino)adamantan-2-ol], the “Rabbit 1 concentration in lung tissue” value in [1] (female, New Zealand White) is recorded as 820 (170) ng/g. Also, the “Rabbit 2 concentration in lung tissue” value in [1] (female, New Zealand White) was 2100 (680) ng/g. Besides, the “amount formed on a per-site basis in lung tissue” value in series [1] is ~ 1 μM. Besides, the half-maximal inhibitory concentration (IC50) in the series with B. subtilis (Bacillus subtilis, 12 h) worked out at 166 ± 0.5 µM; in the series on E. coli (K12) (Escherichia coli, 12 h), 158 ± 4.5 µM. The IC90 in the series on M. tuberculosis H37Rv was determined as 6.2 ± 0.27 µM.
Consider `CC(C)=CCC/C(C)=C/CNCCN` [Compound 20, geranylethylenediamine], for which the IC50 in the series with M. smegmatis, with B. subtilis (setting [5]) and in the series on E. coli (K12) (setting [5]) was over 500 µM each time. For the same compound, the “Rabbit 1 concentration in lung tissue” value in series [1] is reported as 310(14) ng/g. Also, the “Rabbit 2 concentration in lung tissue” value in series [1] is 330 (54) ng/g. Besides, the IC90 with M. tuberculosis H37Rv was over 25 µM.
Consider `CC(C)=CCC/C(C)=C/CN` [Compound 17, geranylamine], for which the IC50 in the series with M. smegmatis, in the series on B. subtilis (setting [5]) and with E. coli (K12) (setting [5]) was over 500 µM throughout. Further, in [1], the “Rabbit 1 concentration in lung tissue” value is given as “BLQ”. Besides, the “Rabbit 2 concentration in lung tissue” value in series [1] was “BLQ”. The IC90 in the series on M. tuberculosis H37Rv was over 25 µM.
Regarding `CC(C)=CCC/C(C)=C/CNCCNC1C2CC3CC1CC(C2)C3O` (stereo not drawn) [Compound 23, (1r,3r,5r,7r)-6-((2-(((E)-3,7-Dimethylocta-2,6-dien-1-yl)-amino)ethyl)amino)adamantan-2-ol], the IC50 in the series with M. smegmatis came out at 68 ± 2.5 µM. Also, in [1], the “amount formed on a per-site basis in lung tissue” value is 6.8 µM, the “Rabbit 1 concentration in lung tissue” value is 1200 (210) ng/g and the “Rabbit 2 concentration in lung tissue” value is listed as 3500 (1200) ng/g. Moreover, the concentration for half-maximal inhibition (IC50) in the series on B. subtilis (setting [5]) was found to be 184 ± 4.5 µM. For the same compound, in the series on M. tuberculosis H37Rv, the IC90 was over 25 µM. Besides, the IC50 in the series with E. coli (K12) (setting [5]) turned out to be 52 ± 2.5 µM.
On to `CC(C)=CCC/C(C)=C/C=O` [Compound 13, geranial], for which the IC50 with M. smegmatis, in the series on B. subtilis (setting [5]) and in the series with E. coli (K12) (setting [5]) was over 500 µM in each case. In addition, the “Rabbit 1 concentration in lung tissue” value in series [1] is “BLQ”. Further, the “Rabbit 2 concentration in lung tissue” value in series [1] was “BLQ”. Besides, in the series on M. tuberculosis H37Rv, the IC90 is over 25 µM.
`NC1C2CC3CC(C2)CC1C3` (stereo not drawn) [Compound 18, 2-aminoadamantane]: in series [1] (female, New Zealand White), the “Rabbit 1 concentration in lung tissue” value was 170(49) ng/g and the “Rabbit 2 concentration in lung tissue” value is listed as 270(27) ng/g. In the series on B. subtilis (Bacillus subtilis, 12 h), the IC50 is over 500 µM. In addition, in the series on M. tuberculosis H37Rv, the IC90 is over 25 µM. Further, the IC50 with E. coli (K12) (Escherichia coli, 12 h) was over 500 µM.
`CC(C)=CCC/C(C)=C/CNCCNC1C2CC3CC(C2)CC1C3` (stereo not drawn) [Compound 1, SQ109]: in series [2], the “pKa (adamantylamine NH)” value is 12.7. Also, the “pKa (geranylamine NH)” value in series [2] is 5.63. For the same compound, the “[14C-SQ109] half-life” value in series [3] and in series [4] was over 5 h throughout. Further, the “Rabbit 1 concentration in lung tissue” value in series [1] (female, New Zealand White) is 37000 (4600) ng/g. For the same compound, the “Rabbit 2 concentration in lung tissue” value in series [1] (female, New Zealand White) is given as 45000 (21000) ng/g. Moreover, the SQ109 remaining with human CYP2D6 was 0.8%; in the series on human CYP2C19 it was 45%. For the same compound, the IC50 with B. subtilis (Bacillus subtilis, 12 h) came out at 16 ± 0.14 µM; in the series on E. coli (K12) (Escherichia coli, 12 h) it was 15 ± 0.26 µM. Besides, the IC90 with M. tuberculosis H37Rv worked out at 1 ± 0.05 µM.
As to `C/C(=C\CNCCNC1C2CC3CC(C2)CC1C3)CCC(=O)C(C)C` (stereo not drawn) [Compound 12, (E)-8-((2-(((1r,3r,5r,7r)-adamantan-2-yl)amino)-ethyl)amino)-2,6-dimethyloct-6-en-3-one], the values for the IC50 in the series on M. smegmatis, with B. subtilis (setting [5]) and in the series on E. coli (K12) (setting [5]) were 22 ± 1.5 µM, 176 ± 5.1 µM and 57 ± 2.3 µM, respectively. The “Rabbit 1 concentration in lung tissue” value in series [1] is given as 91 (20) ng/g. Besides, the “Rabbit 2 concentration in lung tissue” value in series [1] is recorded as 220 (110) ng/g. Also, in the series on M. tuberculosis H37Rv, the IC90 stood at 17 ± 4.5 µM.
Take `CC(C)=CCC/C(C)=C/C=NO` [Compound 15a, geranial oxime]: the IC50 in the series with M. smegmatis, with B. subtilis (setting [5]) and in the series with E. coli (K12) (setting [5]) was over 500 µM throughout. In series [1], the “Rabbit 1 concentration in lung tissue” value is recorded as “BLQ”. Further, in series [1], the “Rabbit 2 concentration in lung tissue” value is on record as “BLQ”. Besides, in the series with M. tuberculosis H37Rv, the concentration for an effect of 90% (IC90) was over 25 µM.
Turning to `C/C(=C\CC/C(C)=C/CNCCNC1C2CC3CC(C2)CC1C3)CO` (stereo not drawn) [Compound 9, (2E,6E)-8-((2-(((1r,3r,5r,7r)-Adamantan-2-yl)amino)ethyl)-amino)-2,6-dimethylocta-2,6-dien-1-ol], the IC50 with M. smegmatis is 55 ± 1.4 µM; in the series with B. subtilis (setting [5]) it was over 500 µM; in the series on E. coli (K12) (setting [5]), 267 ± 4.3 µM. Also, the “Rabbit 1 concentration in lung tissue” value in series [1] is listed as 720 (47) ng/g. Besides, the “Rabbit 2 concentration in lung tissue” value in series [1] is listed as 850 (190) ng/g. The IC90 in the series on M. tuberculosis H37Rv was over 24 µM.
Take `NCCNC1C2CC3CC(C2)CC1C3` (stereo not drawn) [Compound 7, N′-adamantylethylenediamine]: the 50% inhibitory concentration (IC50) in the series with M. smegmatis, in the series on B. subtilis (setting [5]) and with E. coli (K12) (setting [5]) was over 500 µM throughout. In addition, the “Rabbit 1 concentration in lung tissue” value in series [1] is 5500 (360) ng/g. The “Rabbit 2 concentration in lung tissue” value in series [1] is given as 7700 (2200) ng/g. Also, the IC90 in the series with M. tuberculosis H37Rv was over 25 µM.
On to `O=C1C2CC3CC(C2)CC1C3` [Compound 19, 2-adamantanone], for which the IC50 was over 500 µM with B. subtilis (Bacillus subtilis, 12 h) and over 500 µM with E. coli (K12) (Escherichia coli, 12 h). The IC90 in the series on M. tuberculosis H37Rv was over 25 µM.
For the compound `ON=C1C2CC3CC(C2)CC1C3` [Compound 16, adamantan-2-one oxime], in series [1], the “Rabbit 1 concentration in lung tissue” value is “BLQ” and the “Rabbit 2 concentration in lung tissue” value is given as “BLQ”. The IC50 with B. subtilis (Bacillus subtilis, 12 h) is over 500 µM. Moreover, in the series on M. tuberculosis H37Rv, the IC90 was over 25 µM. The IC50 in the series on E. coli (K12) (Escherichia coli, 12 h) was over 500 µM.
As for `CC(C)=CCC/C(C)=C/C(=O)O` [Compound 14, geranic acid], in [1], the “Rabbit 1 concentration in lung tissue” value is “BLQ” and the “Rabbit 2 concentration in lung tissue” value was “BLQ”. Also, the IC50 in the series on B. subtilis (Bacillus subtilis, 12 h) was over 500 µM. For the same compound, the IC90 in the series with M. tuberculosis H37Rv is over 25 µM. In addition, the IC50 with E. coli (K12) (Escherichia coli, 12 h) was over 500 µM.
